Test results taken from ChEMBL document CHEMBL3112525, “Synthesis and biological evaluation of 4-(1,2,3-triazol-1-yl)coumarin derivatives as potential antitumor agents” (Bioorg Med Chem Lett, 2014).

Key:
MCF7 [1] = experiment: Antiproliferative activity against human MCF7 cells after 48 hrs by MTT assay; format: functional, cell-based; conditions: MCF7, 48 h
A549 [2] = experiment: Antiproliferative activity against human A549 cells after 48 hrs by MTT assay; format: functional, cell-based; conditions: A549, 48 h
SW480 = experiment: Antiproliferative activity against human SW480 cells after 48 hrs by MTT assay; format: functional, cell-based; conditions: SW480, 48 h
A549 [3] = experiment: Induction of apoptosis in human A549 cells assessed as late necrotic cells at after 48 hrs by annexin V-FITC and propidium iodide staining-based flow cytometry (reference value: 0.920 %); format: functional
A549 [4] = experiment: Induction of apoptosis in human A549 cells assessed as late apoptotic cells at after 48 hrs by annexin V-FITC and propidium iodide staining-based flow cytometry (reference value: 2.87 %); format: functional
A549 [5] = experiment: Induction of apoptosis in human A549 cells assessed as viable cells at after 48 hrs by annexin V-FITC and propidium iodide staining-based flow cytometry (reference value: 95.5 %); format: functional
A549 [6] = experiment: Induction of apoptosis in human A549 cells assessed as early apoptotic cells at after 48 hrs by annexin V-FITC and propidium iodide staining-based flow cytometry (reference value: 0.720 %); format: functional
MCF7 [7] = experiment: Cell cycle arrest in human MCF7 cells assessed as accumulation at G2/M phase at 5 uM after 48 hrs by flow cytometry (Rvb =15.78 %); format: functional
MCF7 [8] = experiment: Cell cycle arrest in human MCF7 cells assessed as accumulation at S phase at 5 uM after 48 hrs by flow cytometry (Rvb =31.40 %); format: functional
MCF7 [9] = experiment: Cell cycle arrest in human MCF7 cells assessed as accumulation at G1 phase at 5 uM after 48 hrs by flow cytometry (Rvb =52.82 %); format: functional

| IC50 (MCF7 [1]) [µM] | IC50 (A549 [2]) [µM] | IC50 (SW480) [µM] | SMILES | other results |
| --- | --- | --- | --- | --- |
| 13.9 | – | – | CCOC(=O)c1ccc(OCc2cn(-c3c([N+](=O)[O-])cnc4ccc(Br)cc34)nn2)cc1 | – |
| > 50 | > 50 | > 50 | O=c1cc(-n2cc(COc3ccccc3)nn2)c2cc(OCCN3CCOCC3)ccc2o1 | – |
| > 50 | > 50 | > 50 | O=c1cc(-n2cc(COc3ccccc3)nn2)c2cc(O)ccc2o1 | – |
| > 50 | > 50 | > 50 | COc1ccc(CN2CCN(c3cc(=O)oc4ccccc34)CC2)cc1 | – |
| > 50 | 13.2 | 18.4 | O=c1cc(-n2cc(CNc3ccccc3)nn2)c2cc(Br)ccc2o1 | – |
| 36.8 | 3.51 | 15.4 | O=c1cc(-n2cc(CSc3ccccc3)nn2)c2cc(Br)ccc2o1 | – |
| 11.4 | 1.62 | 3.09 | O=c1cc(-n2cc(COc3ccc(C(F)(F)F)cc3)nn2)c2cc(Br)ccc2o1 | – |
| > 50 | > 50 | > 50 | COc1ccc(CN2CCN(c3cc(=O)oc4ccccc34)CC2)cc1OC | – |
| > 50 | > 50 | > 50 | O=c1cc(-n2cc(COc3ccccc3)nn2)c2ccc(OS(=O)(=O)c3ccc(F)cc3)cc2o1 | – |
| 5.84 | 0.68 | 3.82 | O=c1cc(-n2cc(COc3ccc(F)cc3)nn2)c2ccccc2o1 | – |
| 8.56 | 3.15 | 25.9 | COc1ccc2oc(=O)cc(-n3cc(COc4ccc(F)cc4)nn3)c2c1 | – |
| 7.69 | – | – | O=[N+]([O-])c1cnc2ccc(Br)cc2c1-n1cc(COc2ccccc2)nn1 | – |
| 9.45 | 11.2 | 6.66 | O=c1cc(-n2cc(-c3ccccc3)nn2)c2cc(Br)ccc2o1 | – |
| 41.6 | 13.3 | 16.9 | O=c1cc(-n2cc(COc3ccnc4ccc(Br)cc34)nn2)c2cc(Br)ccc2o1 | – |
| 3.13 | 0.66 | 3.62 | COC(=O)c1ccc(OCc2cn(-c3cc(=O)oc4ccc(Br)cc34)nn2)cc1 | – |
| 24.8 | 7.94 | 19.1 | O=c1cc(-n2cc(COc3ccccc3O)nn2)c2cc(Br)ccc2o1 | – |
| > 50 | > 50 | > 50 | O=c1cc(N2CCN(Cc3ccccc3O)CC2)c2ccccc2o1 | – |
| 34.1 | 5.25 | 20.2 | COC(=O)c1ccccc1OCc1cn(-c2cc(=O)oc3ccc(Br)cc23)nn1 | – |

| IC50 (MCF7 [1]) [µM] | IC50 (A549 [2]) [µM] | IC50 (SW480) [µM] | SMILES | other results |
| --- | --- | --- | --- | --- |
| 24.2 | 21.6 | 35 | COc1ccc(OCCN2CCN(c3cc(=O)oc4ccccc34)CC2)cc1 | – |
| > 50 | > 50 | > 50 | O=c1cc(N2CCN(Cc3ccccc3)CC2)c2ccccc2o1 | – |
| 4.62 | 2.01 | 2.72 | O=c1cc(-n2cc(COc3ccc(F)cc3)nn2)c2cc(O)ccc2o1 | – |
| 45.8 | 9.14 | 10.7 | CS(=O)(=O)Oc1ccc2c(-n3cc(COc4ccccc4)nn3)cc(=O)oc2c1 | – |
| 12.7 | 11.6 | 10.8 | CCc1ccc(OCc2cn(-c3cc(=O)oc4ccc(Br)cc34)nn2)cc1 | – |
| > 50 | 11.9 | 24 | O=c1cc(N2CCN(CCOc3ccc(F)cc3)CC2)c2ccccc2o1 | – |
| > 50 | > 50 | > 50 | O=c1cc(N2CCN(Cc3cccc(O)c3)CC2)c2ccccc2o1 | – |
| 22.7 | – | – | O=[N+]([O-])c1cnc2ccc(Br)cc2c1-n1cc(CSc2ccccc2)nn1 | – |
| 5.89 | 0.52 | 1.99 | COc1ccc2c(-n3cc(COc4ccc(F)cc4)nn3)cc(=O)oc2c1 | Activity (A549 [3]): 12.3%; Activity (A549 [4]): 15.9%; Activity (A549 [5]): 52.3%; Activity (A549 [6]): 19.5%; Activity (MCF7 [7]): 84.21%; Activity (MCF7 [8]): 12.73%; Activity (MCF7 [9]): 3.06% |
| 28.9 | 8.43 | 20.1 | O=c1cc(-n2cc(COc3ccccc3Br)nn2)c2cc(Br)ccc2o1 | – |
| 1.92 | 24.5 | 1.31 | O=c1cc(-n2cc(COc3ccc(Br)cc3)nn2)c2cc(Br)ccc2o1 | – |
| 39.8 | 24.8 | 39.8 | O=c1cc(-n2cc(COc3cccnc3)nn2)c2cc(Br)ccc2o1 | – |
| > 50 | > 50 | > 50 | COc1cc(CN2CCN(c3cc(=O)oc4ccccc34)CC2)ccc1O | – |
| > 50 | > 50 | > 50 | O=c1cc(N2CCN(Cc3ccc(F)cc3)CC2)c2ccccc2o1 | – |
| 1.72 | 12.3 | 4.99 | O=c1cc(-n2cc(COc3ccccc3)nn2)c2cc(Br)ccc2o1 | – |
| 7 | 0.85 | 1.77 | O=c1cc(-n2cc(COc3ccc(F)cc3)nn2)c2cc(Br)ccc2o1 | – |
| 2.04 | 11.8 | 2.09 | Nc1ccc(OCc2cn(-c3cc(=O)oc4ccc(Br)cc34)nn2)cc1 | – |
| 3.51 | 1.65 | 2.43 | COc1cccc2c1C(=O)c1c(O)c3c(c(O)c1C2=O)C[C@@](O)(C(=O)CO)C[C@@H]3O[C@H]1C[C@H](N)[C@H](O)[C@H](C)O1 [DOXORUBICIN] | – |
